In the supplement of paper PMC11451515:

Key:
[1] = tested on: SEM cells; assay: AUC of viability dose-response curve (% viability x log10 dose units); higher = less sensitive; settings: 48 h
Outline: (§1)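 In 1536-well plates, leukemia cells adapted to each medium (500 or 1000 cells/well) were exposed for 48 h at 37°C to library compounds in DMSO across 11 threefold doses, 47 μM down to 0.79 nM. Viability was read by CellTiter-Glo One luminescence and normalised per plate to DMSO and cell-free wells. A four-parameter log-logistic fit over log10 doses was integrated by trapezoidal rule. This yielded the area under the curve, with over-full-viability curves scaled and quality-control failures dropped.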

[2] = tested on: NOMO1; assay: as above; settings: 48 h
Outline: as §1

[3] = tested on: P12-Ichikawa; assay: as above; settings: 48 h
Outline: as §1

[4] = tested on: SEM cells; assay: cell viability relative to DMSO control; higher = less cytotoxic; settings: 48 h
Outline: (§2)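 NOMO1 or SEM cells were plated at 500 cells/well and P12-Ichikawa cells at 1000 cells/well in 1536-well plates (5 μl), after each leukemia line had been adapted for at least four passages in each medium. Pin dosing delivered library compounds in DMSO at 11 threefold concentrations, 47 μM to 0.79 nM. CellTiter-Glo One luminescence was read after 48 h at 37°C. Viability is reported as a per-plate percentage of DMSO wells, with cell-free wells as background.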

[5] = tested on: P12-Ichikawa; assay: as above; settings: HPLM + 10% dialyzed FBS, 48 h
Outline: as §2

[6] = tested on: NOMO1; assay: as above; settings: 48 h
Outline: as §2

CCCCCCOC(=O)/N=C(/N)c1ccc(NCc2nc3cc(C(=O)N(CCC(=O)OCC)c4ccccn4)ccc3n2C)cc1
Settings	AUC of viability dose-response curve	cell viability [%]
[1], HPLM + 10% dialyzed FBS	448	–
[1], RPMI 5 mM glucose + 10% FBS	468	–
[1], RPMI 5 mM glucose + 10% dialyzed FBS	475	–
[2], HPLM + 10% dialyzed FBS	443	–
[2], RPMI 5 mM glucose + 10% FBS	449	–
[2], RPMI 5 mM glucose + 10% dialyzed FBS	449	–
[3], HPLM + 10% dialyzed FBS	475	–
[3], RPMI 5 mM glucose + 10% FBS	465	–
[3], RPMI 5 mM glucose + 10% dialyzed FBS	467	–
[5], 0.000781 µM	–	114
[5], 0.00234 µM	–	130
[5], 0.00702 µM	–	122
[5], 0.0211 µM	–	131
[5], 0.0632 µM	–	109
[5], 0.19 µM	–	138
[5], 0.569 µM	–	138
[5], 1.71 µM	–	125
[5], 5.12 µM	–	145
[5], 15.4 µM	–	121
[5], 46.1 µM	–	106

[4], HPLM + 10% dialyzed FBS
Settings	cell viability [%]
0.000781 µM	112
0.00234 µM	113
0.00702 µM	124
0.0211 µM	125
0.0632 µM	123
0.19 µM	125
0.569 µM	129
1.71 µM	134
5.12 µM	145
15.4 µM	137
46.1 µM	125

CC(C)c1cnn2c(NCc3ccccc3)cc(NCCCCCCN)nc12
Settings	AUC of viability dose-response curve	cell viability [%]
[1], HPLM + 10% dialyzed FBS	465	–
[1], RPMI 5 mM glucose + 10% FBS	416	–
[1], RPMI 5 mM glucose + 10% dialyzed FBS	471	–
[2], HPLM + 10% dialyzed FBS	464	–
[2], RPMI 5 mM glucose + 10% FBS	470	–
[2], RPMI 5 mM glucose + 10% dialyzed FBS	463	–
[3], HPLM + 10% dialyzed FBS	464	–
[3], RPMI 5 mM glucose + 10% FBS	442	–
[3], RPMI 5 mM glucose + 10% dialyzed FBS	439	–
[5], 0.000781 µM	–	110
[5], 0.00234 µM	–	124
[5], 0.00702 µM	–	131
[5], 0.0211 µM	–	125
[5], 0.0632 µM	–	122
[5], 0.19 µM	–	127
[5], 0.569 µM	–	116
[5], 1.71 µM	–	113
[5], 5.12 µM	–	116
[5], 15.4 µM	–	110
[5], 46.1 µM	–	76.8

cell viability [%]
Settings	HPLM + 10% dialyzed FBS	RPMI 5 mM glucose + 10% FBS	RPMI 5 mM glucose + 10% dialyzed FBS
[4], 0.000781 µM	121	89.8	108
[4], 0.00234 µM	126	77.3	109
[4], 0.00702 µM	121	105	120
[4], 0.0211 µM	117	88.1	121
[4], 0.0632 µM	111	82.3	98.4
[4], 0.19 µM	111	93.9	117
[4], 0.569 µM	119	83.5	112
[4], 1.71 µM	120	96.9	115
[4], 5.12 µM	118	88.2	96.4
[4], 15.4 µM	106	76.3	114
[4], 46.1 µM	84.9	77.4	81.8
[6], 0.000781 µM	–	115	115
[6], 0.00234 µM	–	107	116
[6], 0.00702 µM	–	117	104
[6], 0.0211 µM	–	121	125
[6], 0.0632 µM	–	109	119
[6], 0.19 µM	–	122	118
[6], 0.569 µM	–	112	114
[6], 1.71 µM	–	114	107
[6], 5.12 µM	–	116	110
[6], 15.4 µM	–	106	101
[6], 46.1 µM	–	101	110

Cc1cncc2cccc([S+](=O)([O-])N3CCCN(C(=O)CN)C[C@@H]3C)c12
AUC of viability dose-response curve
Settings	[1]	[2]	[3]
HPLM + 10% dialyzed FBS	419	455	401
RPMI 5 mM glucose + 10% FBS	397	446	401
RPMI 5 mM glucose + 10% dialyzed FBS	392	438	412

[4], HPLM + 10% dialyzed FBS
Settings	cell viability [%]
0.000781 µM	94.8
0.00234 µM	114
0.00702 µM	126
0.0211 µM	124
0.0632 µM	122
0.19 µM	134
0.569 µM	138
1.71 µM	137
5.12 µM	79
15.4 µM	66.7
46.1 µM	39.9
